Measured values reported in patent US20120022024A1, “ANTI-BACTERIAL COMPOSITIONS AND METHODS INCLUDING TARGETING VIRULENCE FACTORS OF STAPHYLOCOCCUS AUREUS” (priority 2009, published 2012).
Structures can show the parent of a compound that is named as a salt. Where two headings read alike, the source gives them in different places.

Key:
[1] = test system: staphyloxanthin (STX) biosynthesis in S. aureus; test: Staphyloxanthin biosynthesis inhibition assay; format: cell-based, Staphylococcus aureus
Method: The question next arises: how potent are these compounds in inhibiting STX biosynthesis in S. aureus? We thus treated S. aureus bacteria with serially diluted compounds at 37° C. for 3 days, after which the STX pigment was extracted with methanol. Optical densities were measured at 450 nm and IC50 values for inhibition of pigment formation for each compound were calculated using a standard dose-response curve. The rank ordered IC50 values of the 38 compounds investigated are shown in Table 7 and dose-response curves of representative compounds are shown in FIG. 2.
The S. aureus strain used was the WT clinical isolate (Pig1) (4). S. aureus was cultured in THB (1 mL) in the presence of inhibitor compounds for 72 h, in duplicate. Cells were then centrifuged and washed twice with PBS. STX was extracted with MeOH and the O.D. was determined at 450 nm using a Perkin Elmer MBA 2000 (Norwalk, Conn.) spectrophotometer.

S. aureus [2] = conditions: treated mice compared to a control group; cited from earlier work
S. aureus [3] = conditions: non-pigmented S. aureus after treatment versus normally pigmented; cited from earlier work
S. aureus [4] = conditions: non-pigmented S. aureus after treatment versus normally pigmented; cited from earlier work; remark: listed apart in the source
[5] = target: S. aureus CrtM (dehydrosqualene synthase) (Staphylococcus aureus, UniProt A9JQL9); test: CrtM enzyme inhibition assay
[6] = target: T1, human squalene synthase (hSQS) (Homo sapiens, UniProt P37268); test: Human SQS enzyme inhibition assay; format: biochemical; conditions: for CrtM/hSQS selectivity: IC50(hSQS)/IC50(CrtM); for pIC50 (CrtM) − pIC50 (hSQS): experimental data; for relative CrtM/hSQS selectivity: selectivity of compound/selectivity of 1; for IC50: Table 8
T1 construct: a double truncated protein lacking residues 31 at the N-terminus and 46 at the C-terminus; six-histidine tag (pET-28a) (N); made in house; host or cells: E. coli BL21 (DE3) RP
T1 sequence (P37268 31-370 limits assumed): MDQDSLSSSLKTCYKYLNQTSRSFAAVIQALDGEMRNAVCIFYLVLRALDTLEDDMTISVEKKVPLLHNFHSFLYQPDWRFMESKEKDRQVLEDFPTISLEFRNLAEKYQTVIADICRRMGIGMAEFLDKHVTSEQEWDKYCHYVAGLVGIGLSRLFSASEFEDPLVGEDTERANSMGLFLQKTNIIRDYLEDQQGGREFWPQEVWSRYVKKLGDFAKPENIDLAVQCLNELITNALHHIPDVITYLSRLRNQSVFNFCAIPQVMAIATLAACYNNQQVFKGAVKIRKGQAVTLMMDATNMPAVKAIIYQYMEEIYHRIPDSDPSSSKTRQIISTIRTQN
Method: The corresponding amplified insert was initially cloned in the vector pGEMT® (Promega). Plasmid was digested with the endonucleases NdeI and BamHI, and the resulting fragment was cloned into the bacterial expression vector pET-28a to give pET28a-HsSQS which was used to transform E. coli BL21 (DE3) RP strain (Novagen) for overexpression.
Bacteria expressing the constructs were cultured in Luria-Bertani medium supplemented with kanamycin (30 μg/ml) and chloramphenicol (34 μg/ml) at 37° C., until the cells reached an OD of 0.4 at 600 nm, and were then induced at 37° C. for 4 h by incubation with 1 mM isopropyl-1-thio-β-D-galactopyranoside. Cells were harvested by centrifugation (10 min, 4000 rpm) and resuspended in 10 ml of lysis/elution buffer (20 mM […], pH 7.4, 10 mM CHAPS, 2 mM MgCl2, 10% glycerol, 10 mM—mercaptoethanol, 500 mM NaCl, 10 mM imidazole, and a protease inhibitor cocktail (Roche), disrupted by sonication, and centrifuged at 16,000 rpm for 30 min. The supernatant ([…]) was then applied to a HiTrap Nickel-Chelating HP column (Amersham Biosciences). Enzyme purification was performed according to the manufacturer's instructions using a Pharmacia FPLC system. Unbound protein was washed off with 50 mM imidazole, then the His6-HsSQS was eluted with 1M imidazole.
SQS activity was based on measuring the conversion of [3H]FPP to [3H]squalene. […] The region of the squalene band was scraped and immersed in Hydrofluor liquid scintillation fluid, and assayed for radioactivity. IC50 values were calculated from the hyperbolic plot of percent of inhibition versus inhibitor concentration, using GraphPad PRISM®.

[7] = Staphylococcus aureus, 72 h, read-out: Staphyloxanthin IC50
[8] = Staphylococcus aureus, read-out: IC50 (STX)
[9] = Staphylococcus aureus, read-out: IC50(STX)
[10] = read-out: CrtM enzyme experimental activity IC50, Table 5
[11] = Table 7, S. aureus, 37° C., 3 days, read-out: Staphyloxanthin IC50
[12] = read-out: CrtM IC50 values, Table 4

S. aureus CrtM (dehydrosqualene synthase), sequence (A9JQL9 whole entry): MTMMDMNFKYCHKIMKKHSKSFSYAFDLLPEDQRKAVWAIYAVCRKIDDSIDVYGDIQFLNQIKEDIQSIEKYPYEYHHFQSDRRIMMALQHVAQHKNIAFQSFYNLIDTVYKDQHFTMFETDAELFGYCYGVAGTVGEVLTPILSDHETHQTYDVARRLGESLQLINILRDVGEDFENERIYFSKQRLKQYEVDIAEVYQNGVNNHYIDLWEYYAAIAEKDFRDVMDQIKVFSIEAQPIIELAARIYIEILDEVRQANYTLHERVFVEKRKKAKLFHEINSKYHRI

For O=P([O-])([O-])C(CCCc1cccc(Oc2ccccc2)c1)S(=O)(=O)[O-].[K+].[K+].[K+] (stereo not shown) [Compound 1, 1-Phosphono-4-(3-phenoxyphenyl)butylsulfonic acid tripotassium salt, reference compound], the IC50 [1, 7] was 110 nM, the IC50 [1, 8] was 110 nM and the IC50 [1, 9] was 110 nM. For the same compound, the IC50 ([1]; Staphylococcus aureus, read-out: IC50 for STX biosynthesis) was 110 nM, the “bacterial counts in kidneys reduced / bacterial growth inhibited” value (S. aureus [2]) was 98% and the “susceptibility to killing by hydrogen peroxide” value (S. aureus [3]) was “much more susceptible to killing by hydrogen peroxide”. For the same compound, the “survival in freshly isolated human whole blood” value (S. aureus [4]) was “less able to survive in freshly isolated human whole blood” and the IC50 ([5]; read-out: IC50 against CrtM) was 7.9 µM.
In the case of O=P([O-])([O-])C(CCCc1ccc(-c2ccc(C(F)(F)F)cc2)cc1)P(=O)([O-])[O-].[K+].[K+].[K+].[K+] [Compound 3], the CrtM/hSQS selectivity [6] is reported as 0.014, the “pIC50 (CrtM) − pIC50 (hSQS)” value [6] is reported as −1.86 and the “relative CrtM/hSQS selectivity” value [6] is reported as 4.8. The “CrtM enzyme experimental activity pIC50” value ([5]; Table 5) was 6.74.
For O=P([O-])([O-])C(CCCc1ccc(-c2ccc(C(F)(F)F)cc2)cc1)P(=O)([O-])[O-].[K+].[K+].[K+].[K+] [Compound 3, 4-[4-(4-Trifluoromethylphenyl)phenyl)]butyldiphosphonic acid dipotassium salt], the IC50 [1, 7] was 1100 nM, the IC50 [6] was 3 nM and the Ki [5] was about 0.5 nM. The IC50 [5, 10] was 0.18 µM and the IC50 ([5]; read-out: IC50 against CrtM) was 0.2 µM.
In the case of O=P(O)(O)C(CCCc1ccc(-c2ccccc2)cc1)P(=O)(O)O [Compound 2, 4-(4-Biphenyl)butyldiphosphonic acid tetrapotassium salt], the IC50 [1, 7] is reported as 2200 nM, the IC50 [5] is reported as 0.48 µM and the Ki [5] is reported as about 1 nM. For the same compound, the IC50 ([5]; read-out: IC50 against CrtM) was 0.5 µM.
With O=C(CP(=O)(O)O)OCCCc1cccc(Oc2ccccc2)c1 [compound 887] the IC50 [1, 9] was 1500 nM and the IC50 [5] was 1190 µM.
O=P(O)(O)C(CCCc1cccc(Cc2ccccc2)c1)S(=O)(=O)O (stereo not shown) [Compound 17, 1-Phosphono-4-(3-benzylphenyl)butylsulfonic acid tripotassium salt] gave an IC50 [1, 7] of 170 nM and an IC50 [5, 10] of 20.4 µM.
Work on O=C(NO)C(CCCc1cccc(Oc2ccccc2)c1)P(=O)(O)O (stereo not shown) [compound 809] yielded an IC50 [1, 9] of 4230 nM and an IC50 [5] of 859 µM.
With “1-Phosphono-4-[3-(3-fluorophenoxy)phenyl]butylsulfonic acid tripotassium salt [Compound 20]” the IC50 [1, 11] was 220 nM, the “CrtM enzyme experimental activity pIC50” value ([5]; Table 5) was 5.66 and the IC50 [5, 12] was 2.2 µM. For the same compound, the IC50 [5, 10] was 2.2 µM.
With O=P([O-])([O-])C(Cc1cccc(Oc2ccccc2)c1)S(=O)(=O)[O-].[K+].[K+].[K+] (stereo not shown) [Compound 14, 1-Phosphono-2-(3-phenoxyphenyl)ethylsulfonic acid tripotassium salt] the IC50 [1, 7] was 33900 nM, the CrtM/hSQS selectivity [6] was 0.0022 and the IC50 [6] was 3700 nM. The “pIC50 (CrtM) − pIC50 (hSQS)” value [6] was −2.66, the “relative CrtM/hSQS selectivity” value [6] was 0.8 and the IC50 [5, 10] was 1700 µM.
For O=P([O-])([O-])C(CCc1cccc(Oc2ccccc2)c1)S(=O)(=O)[O-].[K+].[K+].[K+] (stereo not shown) [Compound 15, 1-Phosphono-3-(3-phenoxyphenyl)propylsulfonic acid tripotassium salt], the IC50 [1, 7] was 20400 nM, the CrtM/hSQS selectivity [6] was 0.0011 and the IC50 [6] was 550 nM. The “pIC50 (CrtM) − pIC50 (hSQS)” value [6] was −2.96, the “relative CrtM/hSQS selectivity” value [6] was 0.4 and the IC50 [5] was over 500 µM. The “CrtM enzyme experimental activity pIC50” value ([5]; Table 5) was 3.3 and the IC50 [5, 10] was 500 µM.
In the case of “1-Phosphono-4-[3-[4-(furan-2-yl)phenoxy]phenyl]butylsulfonic acid tripotassium salt [Compound 29]”, the IC50 [1, 11] is reported as 1100 nM, the “CrtM enzyme experimental activity pIC50” value ([5]; Table 5) is reported as 4.58 and the IC50 [5, 12] is reported as 26.3 µM. For the same compound, the IC50 [5, 10] was 26.3 µM.
For CP(=O)([O-])C(CCCc1ccc(-c2ccccc2)cc1)P(=O)([O-])[O-].[K+].[K+].[K+] (stereo not shown) [Compound 4], the CrtM/hSQS selectivity [6] was 0.014 and the “relative CrtM/hSQS selectivity” value [6] was 4.7.
With O=P(O)(O)C(CCCc1ccc(-c2ccc(F)cc2F)cc1)S(=O)(=O)O (stereo not shown) [Compound 10, 1-Phosphono-4-[4-(2,4-difluorophenyl)phenyl]butylsulfonic acid tripotassium salt] the IC50 [1, 7] was 180 nM and the IC50 [5, 10] was 9.1 µM.
Work on O=C(CP(=O)(O)O)NCCCCc1cccc(Oc2ccccc2)c1 [compound 898] yielded an IC50 [1, 9] of 35000 nM and an IC50 [5] of 1080 µM.
O=P(O)(O)C(CCCc1cccc(Oc2ccc(C(F)(F)F)cc2)c1)S(=O)(=O)O (stereo not shown) [Compound 7, 1-Phosphono-4-[3-(4-trifluoromethylphenoxy)phenyl]butylsulfonic acid tripotassium salt] showed an IC50 [1, 7] of 40 nM and an IC50 [5, 12] of 7.2 µM.
With “1-Phosphono-4-[3-(3-trifluoromethylphenoxy)phenyl]butylsulfonic acid tripotassium salt [Compound 22]” the IC50 [1, 11] was 74 nM, the “CrtM enzyme experimental activity pIC50” value ([5]; Table 5) was 5.01 and the IC50 [5, 12] was 9.8 µM. It also gave an IC50 [5, 10] of 9.8 µM.
Compound CC(C)(C)c1ccc(Oc2cccc(CCCC(P(=O)(O)O)S(=O)(=O)O)c2)cc1 (stereo not shown) [Compound 25, 1-Phosphono-4-[3-(4-tert-butylphenoxy)phenyl]butylsulfonic acid tripotassium salt] has an IC50 [1, 7] of 21 nM, an IC50 [1, 8] of 21 nM and an IC50 ([5]; read-out: IC50 (CrtM), Table 1) of 10.5 µM.
